Test results published in patent US11129810B2, “Dosage regimen for the treatment of acute exacerbations of chronic obstructive pulmonary disease” (MEREO BIOPHARMA 1 LIMITED, priority 2016, dated 2021).

Tests used:
[1] = Plasma protein binding (free fraction) in human plasma samples; assay type: in vitro ADME
[2] = single oral dose; WO 2013/139809; cited from earlier work
[3] = Human plasma PK of the Day 1, 3 and 5 dosing regimen; assay type: in vivo
Excerpt: This study investigated the efficacy, safety and tolerability of two different dosing regimens of 3-[5-amino-4-(3-cyanobenzoyl)-pyrazol-1-yl]-N-cyclopropyl-4-methylbenzamide added to SoC (systemic corticosteroids and/or antibiotics) versus placebo added to SoC in subjects with severe acute exacerbations of COPD. The proposed doses take into account trough levels based on PK modelling to ensure that the drug rapidly achieves and remains at effective concentrations between doses.
(§1) A number of PK studies have been performed looking at both dosing intervals (Days 1, 3 and 5 (FIGS. 1-4, top panels) versus Days 1, 4 and 7 (FIGS. 1-4 bottom panels)), as well as dose levels (approximately 75/40/40 mg (FIG. 1); approximately 75/20/20 (FIG. 2); approximately 40/40/40 mg (FIG. 3); approximately 40/20/20 mg (FIG. 4), etc.). Based on exposures of the various regimens, there is limited benefit in dosing beyond Day 5 for a typical exacerbation.
Dosing at Day 1, 3 and 5, maintains drug levels above 220 ng/mL out to approximately 140 to 150 hours. This achieves a plasma concentration of 5.7 μM.
The concentration based on free fraction is at or above 740 nM for the duration of the dosing interval. Cmax is approximately 2 μM based on the first dose. […] Assuming a PK variability of 50%, drug levels are 3 to 5 times above the K and so would produce high levels of inhibition, potentially in the range of 90 to 99%.

[4] = tested on: TNF-α; assay: TNF-α levels after single oral doses versus placebo (ex vivo LPS-challenged blood samples); assay type: in vivo, human
Procedure: as §1
Part 1 of study CBCT197A2101 was a randomized, double-blind, placebo-controlled, ascending single-dose study to evaluate safety, tolerability, PK and PD of oral 3-[5-amino-4-(3-cyanobenzoyl)-pyrazol-1-yl]-N-cyclopropyl-4-methylbenzamide in healthy subjects. Part 2 was a 14-day, randomized, double-blind, placebo-controlled, ascending multiple dose study evaluating the PK and PD of oral 3-[5-amino-4-(3-cyanobenzoyl)-pyrazol-1-yl]-N-cyclopropyl-4-methylbenzamide. PD effect of 3-[5-amino-4-(3-cyanobenzoyl)-pyrazol-1-yl]-N-cyclopropyl-4-methylbenzamide in Parts 1 and 2 was assessed by measuring TNFa levels in ex vivo LPS-challenged blood samples. […] Part 3 of the study determined the effect of a single oral administration of 3-[5-amino-4-(3-cyanobenzoyl)-pyrazol-1-yl]-N-cyclopropyl-4-methylbenzamide on serum TNFa levels after in vivo intravenous LPS challenge.

[5] = Highest safe dose based on toxicology margins
Procedure: However, in order to initiate suppression of the inflammatory response the Day 1 dose in both regimes is higher than the doses on Days 3 and 5. The ‘high’ dosing regimen (regimen 1) is initiated at 75 mg which is the highest dose which can be safely administered based on toxicology margins whereas the ‘low’ dose regimen is initiated at a 40 mg dose which approximates to the mid-point in the TNF-α response curve.

## Cc1ccc(C(=O)NC2CC2)cc1-n1ncc(C(=O)c2cccc(C#N)c2)c1N [3-[5-amino-4-(3-cyanobenzoyl)-pyrazol-1-yl]-N-cyclopropyl-4-methylbenzamide]
[1]
  fraction unbound: 0.13 to 0.25
[2]
  effect on recovery of AECOPD to the stable disease state: accelerates the recovery to the stable disease state
[3]; dosing at Day 1, 3 and 5
  plasma concentration: 5.7 µM
[3]; dosing at Day 1, 3 and 5, out to approximately 140 to 150 hours
  drug levels maintained: above 220 ng/mL
[3]; for the duration of the dosing interval
  concentration based on free fraction: ≥ 740 nM
[3]; human, plasma, oral, based on the first dose
  Cmax: ~2000 nM
[3]; occurs for 6 days, from drug levels versus Ki and IC50
  enzyme inhibition: > 99%
[4]; doses ranging from 0.1 to 75 mg
  reduction in TNF-α levels: dose-dependent reduction
[4]; in vivo
  dose approximating the mid-point in the TNF-α response curve: ~40 mg
[5]
  highest dose which can be safely administered based on toxicology margins: 75 mg
